Data taken from patent US4200631A, “Treating mammalian subject sensitive to indomethacin ulcerogenisis” (priority 1978, dated 1980).
Where “and” joins values, the source holds several entries; their conditions need not be identical. Equal entries are not always repeated. Entries after “also recorded” stand apart in the source; their conditions may differ. Where two headings read alike, the source gives them in different places.

Columns and labels:
[1] = Antiphlogistic effect, carrageenin-oedema test (Series 1, Table 3)
Protocol: The antiphlogistic effects were studied on Wistar rats of both sexes, animal subjects found to be particularly prone to indomethacin ulcerogenisis, each weighing 100 to 150 g. The animals were starved for 24 hours, and then 0.1 ml portions of a 1% carrageenin solution were injected under mild ether anaesthesia into the plantar region of one of the hind paws in order to provoke inflammation (oedema). The antiphlogistic agent or a combination thereof was introduced into the stomach of the animals via a stomach tube immediately before injecting the carrageenin solution. 4 hours after this treatment the animals were sacrificed, and both hind paws were amputated above the ankles. The paws were weighed, and the oedema weight was calculated from the weight difference of the treated and untreated paws.

[2] = rat, in vivo
[3] = rat, in vivo; for ED50 at 180 min: po
[4] = in vivo; conditions: rat, po
[5] = treated subsequently with Na-salicylate; cited from earlier work
[6] = rat, in vivo; for Analgesic ED50 / Therapeutical index LD50/ED50 (C): po
[7] = general statement; cited from earlier work
[8] = in vivo; conditions: rat, po; remark: listed apart in the source
[9] = in vivo; conditions: rat, po; remark: listed apart in the source
[10] = in vivo; conditions: rat, po; remark: listed apart in the source
[11] = 3-day gastrointestinal side-effect test on non-starved animals (Table 4); type: in vivo, rats
Protocol: In the following tests animals treated for 3 days with various combinations of indomethacin and sodium salicylate were examined. The non-starved test animals were treated orally for 3 days with compositions containing 20 mg/kg of indomethacin and increasing amounts of sodium salicylate.

[12] = rat, in vivo; remark: listed apart in the source
[13] = system: prostaglandin synthesis; conditions: listed as Na-salicylate; cited from earlier work
[14] = Gastric ulcerogenic side-effects, starved rats (Series 1, Tables 1 and 2); conditions: for No. of ulcer/stomach / Ulcer-free animals % / Ulcer-free animals No.: 4 h
[15] = indomethacin 3 × 20 mg/kg p.o. alone

Structure (SMILES): CC(=O)Oc1ccccc1C(=O)O [Aspirin, acetylsalicylic acid]
- main antiphlogistic effects when administered together with sodium salicylate [1]: remain unchanged, or even the antiphlogistic effects of the two active agents are superimposed
- ulcerogenic side-effects when administered together with sodium salicylate [2]: can also be antagonized effectively

Structure (SMILES): COc1ccc2c(c1)c(CC(=O)O)c(C)n2C(=O)c1ccc(Cl)cc1 [Indomethacin]
- Inhibition of oedema 30 min following carrageenin [3]: 23.6 and 42.3 and 42.7
- Inhibition of oedema 180 min following carrageenin [3]: 30.5 and 53.0 and 53.4
- Relative intestinal toxicity IUD50/ED50 (A) [3]: 5.8
- ED50 at 180 min [3]: 2.4 mg/kg
- TD50 at 48 h [4]: 14 mg/kg
- Inhibition of oedema, 3rd day, left (challenged) foot (daily dose 0.65 mg/kg p.o.): 26.7 percentage of control
- Inhibition of oedema, 21st day, left foot (daily dose 0.65 mg/kg p.o.): 46.6 percentage of control
- Inhibition of oedema, 21st day, right foot (daily dose 0.65 mg/kg p.o.): 47.2 percentage of control
- Inhibition of oedema, 3rd day, left (challenged) foot (daily dose 1.25 mg/kg p.o.): 36.3 percentage of control
- Inhibition of oedema, 21st day, left foot (daily dose 1.25 mg/kg p.o.): 46.7 percentage of control
- Inhibition of oedema, 21st day, right foot (daily dose 1.25 mg/kg p.o.): 35.6 percentage of control
- Inhibition of oedema, 3rd day, left (challenged) foot (daily dose 2.50 mg/kg p.o.): 36.8 percentage of control
- Inhibition of oedema, 21st day, left foot (daily dose 2.50 mg/kg p.o.): 58.0 percentage of control
- Inhibition of oedema, 21st day, right foot (daily dose 2.50 mg/kg p.o.): 72.6 percentage of control
- reduction of indomethacin blood levels [5]: 30-50%
- Relative intestinal toxicity IUD50/ED50 (C) [6]: 3.8
- Analgesic ED50 [6]: 3.65 mg/kg
- Therapeutical index LD50/ED50 (C) [6]: 3.4
- ulcerating potency among non-steroid antiinflammatory agents [7]: most potent ulcerating compound
- TD50 at 4 h [8]: 5 mg/kg
- selectivity ratio [9]: 5.2
- LD50 [10]: 12.5 mg/kg
- Oedema-inhibiting effect % ([1]; indomethacin 5 mg/kg p.o. alone): 40%
- Oedema-inhibiting effect % ([1]; indomethacin 10 mg/kg p.o. alone): 45%
- Died animals No. [11, 15]: 33 No.
- Ulcerous animals % [11, 15]: 100%
- Ulcerous animals No. [11, 15]: 45 No.
- ulcers in the intestines of the survivors ([11]; indomethacin only, 20 mg/kg for 3 days, orally): clearly visible ulcers appeared in the intestines of the survivors
- mortality at 72 h ([11]; rat, in vivo, po, indomethacin 3 × 20 mg/kg p.o. alone, 3rd day, read-out: Died animals %): 73%
- acute toxicity of indomethacin alone relative to combination with Na-salicylate [12]: 72 fold

Structure (SMILES): O=C(O)c1cccnc1Nc1cccc(C(F)(F)F)c1 [Niflumic acid]
- main antiphlogistic effects when administered together with sodium salicylate [1]: remain unchanged, or even the antiphlogistic effects of the two active agents are superimposed
- ulcerogenic side-effects when administered together with sodium salicylate [2]: can also be antagonized effectively

Structure (SMILES): CCCCC1C(=O)N(c2ccccc2)N(c2ccccc2)C1=O [Phenylbutazone, 4-butyl-1,2-diphenyl-pyrazolidine-3,5-dione]
- main antiphlogistic effects when administered together with sodium salicylate [1]: remain unchanged, or even the antiphlogistic effects of the two active agents are superimposed
- ulcerogenic side-effects when administered together with sodium salicylate [2]: can also be antagonized effectively

Structure (SMILES): O=C([O-])c1ccccc1O.[Na+] [Sodium salicylate]
- ED50 at 180 min [3]: 320 mg/kg
- Analgesic ED50 [6]: 513 mg/kg
- Therapeutical index LD50/ED50 (C) [6]: 4.6
- selectivity ratio [9]: 7.5
- LD50 [10]: 2400 mg/kg
- Oedema-inhibiting effect % ([1]; sodium salicylate 50 mg/kg p.o. alone): 15%
- Oedema-inhibiting effect % ([1]; sodium salicylate 100 mg/kg p.o. alone): 43%
- inhibition of prostaglandin synthesis [13]: except Na-salicylate; also recorded: practically ineffective as a prostaglandin inhibitor
- No. of ulcer/stomach ([14]; 50 mg/kg p.o.): 0.1 ulcer/stomach
- Ulcer-free animals % ([14]; 50 mg/kg p.o.): 82%
- Ulcer-free animals No. ([14]; 50 mg/kg p.o.): 37 No.
- No. of ulcer/stomach ([14]; 100 mg/kg p.o.): 0.1 ulcer/stomach
- Ulcer-free animals % ([14]; 100 mg/kg p.o.): 96%
- Ulcer-free animals No. ([14]; 100 mg/kg p.o.): 27 No.
- No. of ulcer/stomach ([14]; 200 mg/kg p.o.): 1.2 ulcer/stomach
- Ulcer-free animals % ([14]; 200 mg/kg p.o.): 50%
- Ulcer-free animals No. ([14]; 200 mg/kg p.o.): 37 No.
- No. of ulcer/stomach ([14]; 400 mg/kg p.o.): 1.1 ulcer/stomach
- Ulcer-free animals % ([14]; 400 mg/kg p.o.): 71%
- Ulcer-free animals No. ([14]; 400 mg/kg p.o.): 32 No.
- gastrointestinal hemorrhagic or ulcerogenic side-effects of other non-steroidal antiphlogistic agents, specifically indomethacin ([14]; Series 1 discussion): antangonizes the gastrointestinal hemmorhagic or ulcerogenic side-effects
